Legend:
Format in all cases: cell-based, human
[1] = system: iPSC-CRISPR dCas9 SAM cells; assay: minimum inhibitory concentration (MIC) assay for geneticin
Source text: The lentiviral vector backbone encodes geneticin as an antibiotic selection marker.

EPO [2] = assay: qPCR screening of EPO sgRNA lentiviruses; settings: day 4 after transduction, unconcentrated lentivirus supernatant
Protocol: cDNA was synthesized from 1 μg of RNA using the Maxima First Strand cDNA Synthesis Kit (ThermoFisher). Quantitative real-time polymerase chain reaction (qPCR) was carried out using QuantStudio 3 Real-Time PCR System (ThermoFisher). The samples were run in biological triplicates and expression levels normalized using the geometric mean of the “housekeeping” gene: glyceraldehyde phosphate dehydrogenase (GAPDH).
(§1) For this, four different sgRNAs were designed for each of the growth factors/cytokines and constructed lentiviral vectors as mentioned previously (Table 4). For testing the activity of EPO expression, the lentiviruses of four different sgRNAs were produced and screened for the best performing guide in activating EPO expression. The iPSC-CRISPR dCas9 SAM cells were transduced with the unconcentrated lentivirus supernatant of the four sgRNAs individually and tested for their EPO gene expression using qPCR analysis on day 4 cells after transduction. […] Further, the spent media of the cells were collected from two wells of a 12-well plate on days 3 and 4 transduced with EPO_g2 and was stored in −20° C. Next, an Amicon Ultra-15 centrifugal filter was used with 10KDa cut-off membrane (EPO molecular weight: 21 KDa) to concentrate the EPO protein and the retentate washed with 1× PBS was used for ELISA assay.

EPO [3] = assay: EPO ELISA of spent medium after endogenous EPO activation; settings: iPSC-CRISPR dCas9 SAM cells, spent medium of days 3 and 4 pooled, concentrated with 10 KDa filter, retentate, commercial ELISA
Protocol: FIG. 14 Endogenous activation of erythropoietin (EPO) growth factor in human iPSC-dCas9 SAM cells. (a) qPCR data collected after 4 days of EPO sgRNAs lentivirus (unconcentrated) transduction. (b) EPO ELISA was carried out using two commercially available sources to quantify the CRISPRa EPO. For this, the spent mTesR medium of cells transduced with EPO_g2 were collected on days 3 and 4, the pooled medium was concentrated using Amicon Ultra-15 centrifugal filter (10 KDa cutoff membrane) since the EPO MW is 21 KDa. The retentate was used for quantification using ELISA. According to the standards, the EPO secreted in the medium is in the range of 47-51 IU/mL of EPO.
as §1, with “Next, an Amicon Ultra-15 centrifugal filter was used with 10KDa cut-off membrane (EPO molecular weight: 21 KDa) to concentrate the EPO protein and the retentate washed with 1× PBS was used for ELISA assay.” left out

Compound | MIC of geneticin [1] | EPO gene expression compared to non-transduced control cells (EPO [2]) | EPO secreted in the medium (EPO [3])
CN[C@@H]1[C@@H](O)[C@@H](O[C@@H]2[C@@H](O)[C@H](O[C@H]3O[C@H]([C@@H](C)O)[C@@H](O)[C@H](O)[C@H]3N)[C@@H](N)C[C@H]2N)OC[C@]1(C)O [geneticin] | 100 µg/mL |  | 
EPO_g2: sgRNA for EPO, guide sequence TGTGCGTGAGGGGTCGCCAG (listed as DNA, chemistry not given here) |  | higher EPO gene expression | 47-51 IU/mL

Reference: patent publication US20220145249A1, “A Method of Altering a Differentiation Status of a Cell” (Agency for Science, Technology and Research, priority 2019, published 2022)
